Measured values: ChEMBL document CHEMBL3352607, “Exploiting the anti-HIV 6-desfluoroquinolones to design multiple ligands” (Bioorg Med Chem, 2014)
Calls of active or inactive are those of the source. The calls are words filed in the database; no cut-off is given here.

What was measured:
[1] = system: Human immunodeficiency virus 2; experiment: Antiviral activity against HIV2 ROD acutely infected in human MT4 cells assessed as inhibition of virus-induced cytopathogenic effect after 5 days by MTT assay; format: functional, organism-based; conditions: Human immunodeficiency virus 2, ISOLATE ROD, MT4, 120 h
[2] = Cytotoxicity against mock-infected human MT4 cells after 5 days by MTT assay; format: cell-based
[3] = system: Human immunodeficiency virus 1; experiment: Antiviral activity against HIV1 3B acutely infected in human MT4 cells assessed as inhibition of virus-induced cytopathogenic effect after 5 days by MTT assay; format: functional, organism-based; conditions: Human immunodeficiency virus 1, 3B, MT4, 120 h
[4] = molecular target: T1, Protein Tat (Human immunodeficiency virus type 1 group M subtype B (isolate HXB2)(HIV-1)) (UniProt P04608); experiment: Inhibition of HIV1 Tat-mediated transactivation of HIV1 long terminal repeat in human HeLa cells after 24 hrs by LTR driven luciferase reporter assay; format: cell-based; conditions: Human immunodeficiency virus 1
T1 sequence (whole entry): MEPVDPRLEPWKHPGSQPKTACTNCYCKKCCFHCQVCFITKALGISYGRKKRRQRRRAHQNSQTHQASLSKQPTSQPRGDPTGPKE

[5] = molecular target: T2, Human immunodeficiency virus type 1 reverse transcriptase (Human immunodeficiency virus 1, UniProt Q72547); experiment: Inhibition of HIV1 recombinant wild type reverse transcriptase p66/p51 using dsDNA by microplate reader based assay
[6] = molecular target: T2, Human immunodeficiency virus type 1 reverse transcriptase; experiment: Inhibition of HIV reverse transcriptase
[7] = Cytotoxicity against human OM10.1 cells by MTT assay; format: cell-based
[8] = system: Human immunodeficiency virus 1; experiment: Antiviral activity against HIV1 latently infected in PMA-stimulated human OM10.1 cells assessed as reduction in p24 antigen levels pre-incubated for 2 hrs with host cells followed by 2 day incubation; format: functional, organism-based
[9] = system: HeLa; experiment: Cytotoxicity against human HeLa cells at 10 uM to 200 uM after 24 hrs; format: cell-based
[10] = Selectivity index, ratio of CC50 for human OM10.1 cells to IC50 for HIV1 latently infected in human OM10.1 cells; format: functional

Row | inhibition [4] | IC50 [5] [µM] | IC50 [6] [nM] | SMILES | EC50 [1] [µM] | CC50 at 120 h [2] [µM] | EC50 [3] [µM] | CC50 [7] [µM] | EC50 [8] [nM] | Activity [9] | Ratio CC50/IC50 [10]
1 | – | – | – | Cc1ccnc2c1NC(=O)c1cccnc1N2C1CC1 [NEVIRAPINE] | > 15 | > 15 | – | – | – | – | –
2 | inactive | 14.8 | – | CCN1c2ncccc2NC(=O)c2cc(N3CCN(c4cc5c(cc4N)c(=O)c(C(=O)O)cn5C)CC3)cnc21 | > 25.7 | 25.7 | > 25.7 | – | – | – | –
3 | – | – | 17 | CCN1c2ncc(CCOc3cc[n+]([O-])c4ccccc34)cc2C(=O)N(C)c2cccnc21 [BILR 355] | – | – | – | – | – | – | –
4 | Dose-dependent effect | 8.4 | – | CCN1c2ncccc2NC(=O)c2ccc(N3CCN(c4cc5c(cc4N)c(=O)c(C(=O)O)cn5C)CC3)nc21 | > 23.5 | 23.5 | > 23.5 | 18.4 | 5110 | Non-toxic | 4
5 | – | 800 | – | Cn1cc(C(=O)O)c(=O)c2cc(N)c(N3CCN(c4ccccn4)CC3)cc21 | 0.25 | – | 0.15 | 31.2 | 76 | – | –
6 | inactive | 73.4 | – | CCN1c2ncccc2NC(=O)c2cc(NCCNc3cc4c(cc3N)c(=O)c(C(=O)O)cn4C)cnc21 | > 200 | > 200 | > 200 | – | – | – | –
